This is an account of results in patent publication US5124326A, “Pharmaceutically efficacious pteridine derivatives” (Roehm GmbH Chemische Fabrik, priority 1989, dated 1992).

Series [1] is described as follows: distribution coefficient log P. The class given is physicochemical. The conditions noted are these: for logD: read-out: lipophilicity log P; for logP: from the preparation examples.
Series [2] is described as follows: solubility in isotonic phosphate buffer pH 7.4. The class given is physicochemical. The conditions noted are these: for solubility: aqueous buffer.
The nature of series [3]: resorption rate from renal recovery following p.o. and i.v. administration. Type of series: in vivo, Male Wister rats. The conditions noted are these: rat, urine, po; quotient of urinary recovery p.o./i.v.; rats. Here is the method: Male Wister rats, weighing approximately 130 g, were used in the tests. Food had been withdrawn from the rats for 18 hours. Immediately before the intravenous administration of the test substance, they were fed orally a quantity of 20 ml/kg of 0.9% NaCl solution. […] Under a slight anesthesia, administration was by the caudal vein. Generally six experimental animals were used per test. The peroral administration was by means of probang in the gastrointestinal region. The substances were administered in a mixture comprising Tylose® and physiological NaCl solution, which serves simultaneously as the hydration agent ([…]). The animals were placed individually into diuresis cages and urine was collected after 2.5 or 3 or 6 hours. The electrolytes (Na^+ K^+, Mg^+2) were determined by means of flame photometry and by means of atomic absorption measurement with the FL6 automatic electrolyte equipment from Zeiss/Oberkochen. The renal recovery of the test substances serves as a means of measuring resorption following oral administration. The resorption rate is determined from the quotients of the recovery rates following peroral (p.o.) and intravenous (i.v.) administration, as given in percent. The recovery rate notes the renally excreted quantity based on the medicated quantity of the active substances. The concentration of the test substances in the urine of the animals is determined in accordance with thin-layer chromatographic separation by means o spectrophotometry.

The subject of series [4] is urine volume, Na^+, K^+. In words: diuresis test in rats (urine volume, Na+, K+ excretion; dose/response, ED50). The conditions noted are these: for ED50: Rattus norvegicus; for ED50 / Na^+/K^+ quotient i.v. / Na^+/K^+ quotient p.o.: rats. The class given is in vivo, Male Wister rats. As to the method: The compounds of formula I and their acid addition salts, with physiologically tolerable acids are quite suitable for peroral and intravenous medication. The diuresis tests were conducted according to the following method. Diuresis Tests/Method Male Wister rats, weighing approximately 130 g, were used in the tests. Food had been withdrawn from the rats for 18 hours. Immediately before the intravenous administration of the test substance, they were fed orally a quantity of 20 ml/kg of 0.9% NaCl solution. […] Under a slight anesthesia, administration was by the caudal vein. Generally six experimental animals were used per test. The peroral administration was by means of probang in the gastrointestinal region. The substances were administered in a mixture comprising Tylose® and physiological NaCl solution, which serves simultaneously as the hydration agent ([…]). The animals were placed individually into diuresis cages and urine was collected after 2.5 or 3 or 6 hours. The electrolytes (Na^+ K^+, Mg^+2) were determined by means of flame photometry and by means of atomic absorption measurement with the FL6 automatic electrolyte equipment from Zeiss/Oberkochen. Curves for dose/response correlations were obtained with the aid of non-linear regression analysis with the NONLIN computer program by C. Daniel and F. S. Wood in "Fitting Equations to Data", J. Wiley & Sons, New York, 1980. Thus, the characteristic value ED50 (=potency) applied to determine the diuretic efficacy is defined as the quantity of active substance per kg of body weight, which is necessary for the semi-maximum effect.

Series [5] can be described thus: metabolization. The conditions noted are these: in vivo.
Setting [6] is: isotonic phosphate buffer, pH = 7.4, read-out: solubility.
Where [7] appears, read: iv, duration 2.5 h, read-out: ED50 (potency), urine K^+.
[8] abbreviates: iv, duration 2.5 h, read-out: ED50 (potency), urine Na^+.
Setting [9] is: iv, duration 2.5 h, read-out: ED50 (potency), urine volume.
Setting [10] is: iv, duration 6 h, read-out: ED50 (potency), urine K^+.
Setting [11] is: iv, duration 6 h, read-out: ED50 (potency), urine Na^+.
Where [12] appears, read: iv, duration 6 h, read-out: ED50 (potency), urine volume.
Setting [13] is: po, duration 3 h, read-out: ED50 (potency), urine K^+.
Setting [14] is: po, duration 3 h, read-out: ED50 (potency), urine Na^+.
[15] abbreviates: po, duration 3 h, read-out: ED50 (potency), urine volume.
Setting [16] is: po, duration 6 h, read-out: ED50 (potency), urine K^+.
[17] abbreviates: po, duration 6 h, read-out: ED50 (potency), urine Na^+.
Setting [18] is: po, duration 6 h, read-out: ED50 (potency), urine volume.
The mark [19] stands for this setting: isotonic phosphate buffer pH 7.4, read-out: solubility in isotonic phosphate buffer.

≈ marks a conversion by molar mass, not a printed value. Read-outs that look alike come from different tables or passages of the source.

Broadly, the solubility is how much of the substance goes into solution per volume. Broadly, the ED50 is the dose at which the effect has come halfway, by size or by number of responders. For the compound `Nc1nc(N)c2nc(-c3ccccc3)c(N)nc2n1` [Triamterene, 2,4,7-triamino-6-phenylpteridine, reference compound], the “lipophilicity log P” value in series [1] (pH = 7.4) came out at 1.26. The solubility in series [2] (setting [6]) amounted to 21 µg/mL (≈ 82.9 µM). Besides, the Fa in series [3] is around 80%. The ED50 in series [4] (setting [7]) came to 11.2 µmol/kg; in series [4] (setting [8]) it was 2.38 µmol/kg; in series [4] (setting [9]) it was 13.9 µmol/kg; in series [4] (setting [10]), 9.79 µmol/kg; in series [4] (setting [11]) it was 10.6 µmol/kg; in series [4] (setting [12]), 10.6 µmol/kg. In addition, the ED50 is 3.38 µmol/kg in series [4] (setting [13]); 6.17 µmol/kg in series [4] (setting [14]); 6.4 µmol/kg in series [4] (setting [15]); 8.39 µmol/kg in series [4] (setting [16]); 5.06 µmol/kg in series [4] (setting [17]); 6.57 µmol/kg in series [4] (setting [18]). Besides, in series [4], the “Na^+/K^+ quotient i.v.” value was determined as 8. In series [4], the “Na^+/K^+ quotient p.o.” value was determined as 6.

Regarding `CN(C)Cc1ccc(-c2nc3c(N)nc(N)nc3nc2N)cc1` [compound IA, 2,4,7-Triamino-6-[4-(dimethylaminomethyl)phenyl]pteridine], the logD in series [1] (pH = 7.4) was -0.36. Moreover, the solubility in series [2] (setting [6]) is 580 µg/mL (≈ 1870 µM). Moreover, in series [3], the Fa came to 11%. Besides, in series [4], the “Na^+/K^+ quotient i.v.” value turned out to be 9 and the “Na^+/K^+ quotient p.o.” value was determined as 18.

For `Nc1nc(N)c2nc(-c3ccc(CN4CCC(Cc5ccccc5)CC4)cc3)c(N)nc2n1` [compound IB, 2,4,7-Triamino-6-[4-(4-benzylpiperidinomethyl)phenyl]pteridine], the logD in series [1] (pH = 7.4) was 2.7. Also, the solubility in series [2] (setting [19]) was 1.1 µg/mL (≈ 2.5 µM). The Fa in series [3] is below 1%. Besides, in series [4], the “Na^+/K^+ quotient i.v.” value turned out to be 17 and the “Na^+/K^+ quotient p.o.” value stood at 4.

For `CC(C)N(Cc1ccccc1)Cc1ccc(-c2nc3c(N)nc(N)nc3nc2N)cc1` [compound IC, 2,4,7-Triamino-6-[4-(N-benzyl-N-isopropylaminomethyl)phenyl]pteridien], the logD in series [1] (pH = 7.4) was 3.2. Also, the solubility in series [2] (setting [6]) came out at 1.9 µg/mL (≈ 4.58 µM). Moreover, in series [4], the “Na^+/K^+ quotient i.v.” value was determined as 7 and the “Na^+/K^+ quotient p.o.” value was determined as 13. For the same compound, the metabolization entry in series [5] is given as “is metabolized quantitatively”.

Consider `Nc1nc(N)c2nc(-c3ccc(CN4CCCCC4)cc3)c(N)nc2n1` [compound ID, 2,4,7-Triamino-6-[4-(piperidinomethyl)phenyl]pteridine], for which, in series [1] (pH = 7.4), the logD worked out at 0.2. Besides, the solubility in series [2] (setting [6]) is 76 µg/mL (≈ 217 µM). This compound also yielded a Fa in series [3] of 19%. In addition, in series [4], the “Na^+/K^+ quotient i.v.” value came to 37 and the “Na^+/K^+ quotient p.o.” value was 7.

Consider `CC1CCN(Cc2ccc(-c3nc4c(N)nc(N)nc4nc3N)cc2)CC1` [compound IE, 2,4,7-Triamino-6-[4-(4-methylpiperidinomethyl)phenyl]pteridine], for which the logD in series [1] (pH = 7.4) was determined as 0.89. Also, in series [2] (setting [6]), the solubility was found to be 139 µg/mL (≈ 381 µM). The “increased solubility in comparison to Triamterene” value in series [2] (pH 7.4 in phosphate buffer, vs Triamterene) amounted to 6.5 fold. This compound gave a Fa in series [3] of 31%. The ED50 in series [4] (setting [7]) turned out to be 5.4 µmol/kg; in series [4] (setting [8]), 3.13 µmol/kg; in series [4] (setting [9]) it was 2.65 µmol/kg; in series [4] (setting [10]), 5.9 µmol/kg; in series [4] (setting [11]), 12.7 µmol/kg; in series [4] (setting [12]), 8.24 µmol/kg. For the same compound, the 50% effective dose (ED50) in series [4] (setting [13]) worked out at 2.16 µmol/kg; in series [4] (setting [14]), 9.49 µmol/kg; in series [4] (setting [15]), 11.8 µmol/kg; in series [4] (setting [16]), 2.41 µmol/kg; in series [4] (setting [17]) it was 12.7 µmol/kg; in series [4] (setting [18]), 14.8 µmol/kg. In addition, the “potassium-saving potency in comparison to Triamterene” value in series [4] (following peroral administration, vs Triamterene) is on record as “higher potassium-saving potency”. The “Na^+/K^+ quotient i.v.” value in series [4] is 27. Besides, in series [4], the “Na^+/K^+ quotient p.o.” value was determined as 14. Moreover, the metabolization entry in series [5] was “No metabolization”.

Consider `CC1CCCC(C)N1Cc1ccc(-c2nc3c(N)nc(N)nc3nc2N)cc1` (stereo not drawn) [compound IF, 2,4,7-Triamino-6-[4-(2,6-dimethylpiperidinomehyl)phenyl]pteridine], for which, in series [1] (pH = 7.4), the logD came to 0.68. Also, the solubility in series [2] (setting [6]) amounted to 25 µg/mL (≈ 66.1 µM). This compound also showed a Fa in series [3] of 33%. Further, in series [4], the “Na^+/K^+ quotient i.v.” value amounted to 21 and the “Na^+/K^+ quotient p.o.” value is on record as 15.

Regarding `CC1CC(C)CN(Cc2ccc(-c3nc4c(N)nc(N)nc4nc3N)cc2)C1` (stereo not drawn) [compound IG, 2,4,7-Triamino-6-[4-(3,5-dimethylpiperidinomethyl)phenyl]pteridine], the logD in series [1] (pH = 7.4) stood at 1.74. The solubility in series [2] (setting [6]) is 13 µg/mL (≈ 34.3 µM). In addition, the Fa in series [3] was 23%. Further, in series [4], the “Na^+/K^+ quotient i.v.” value was found to be 39 and the “Na^+/K^+ quotient p.o.” value is given as 7.

Usually logP stands for the decadic logarithm of the partition coefficient of the neutral form, usually between octanol and water. A lower logP goes with lower lipophilicity. Regarding `CN(C)CCCc1ccc(-c2nc3c(N)nc(N)nc3nc2N)cc1` [compound IH, 2,4,7-Triamino-6-[40(3-dimethylaminopropyl)phenyl]pteridine], the logP in series [1] is -0.6. In addition, the logD in series [1] (pH = 7.4) is -0.6. In series [2] (setting [19]), the solubility worked out at 2000 µg/mL (≈ 5910 µM). Further, in series [3], the Fa came to 3%. The median effective dose (ED50) was 1.41 µmol/kg in series [4] (setting [7]); 1.44 µmol/kg in series [4] (setting [8]); 1.23 µmol/kg in series [4] (setting [9]); 1.3 µmol/kg in series [4] (setting [10]); 1.83 µmol/kg in series [4] (setting [11]); 1.7 µmol/kg in series [4] (setting [12]). The “Na^+/K^+ quotient i.v.” value in series [4] turned out to be 12. Besides, the “Na^+/K^+ quotient p.o.” value in series [4] came to 7.

`CN(C)CCc1ccc(-c2nc3c(N)nc(N)nc3nc2N)cc1` [compound IJ, 2,4,7-Triamino-6-[4-(2-dimethylaminoethyl)phenyl]pteridine]: the logP in series [1] was -0.59. Besides, the logD in series [1] (pH = 7.4) was -0.59. Further, the solubility in series [2] (setting [19]) is 2200 µg/mL (≈ 6780 µM). The compound further registered a Fa in series [3] of 4%. Further, the 50% effective dose (ED50) stood at 1.04 µmol/kg in series [4] (setting [7]); 1.63 µmol/kg in series [4] (setting [8]); 2.36 µmol/kg in series [4] (setting [9]); 2.6 µmol/kg in series [4] (setting [10]); 1.64 µmol/kg in series [4] (setting [11]); 2.61 µmol/kg in series [4] (setting [12]). Also, the “Na^+/K^+ quotient i.v.” value in series [4] came out at 10. Moreover, in series [4], the “Na^+/K^+ quotient p.o.” value is given as 6.

With `CC1CCCC(C)N1CCCc1ccc(-c2nc3c(N)nc(N)nc3nc2N)cc1` (stereo not drawn) [compound IL, 2,4,7-Triamino-6-[4-(3-(2,6-dimethylpiperidino)propyl)phenyl]pteridine], the logD in series [1] (pH = 7.4) was 0.04. The solubility in series [2] (setting [6]) was determined as 1500 µg/mL (≈ 3690 µM). The compound further yielded a Fa in series [3] of 3%. In series [4], the “Na^+/K^+ quotient i.v.” value was found to be 170 and the “Na^+/K^+ quotient p.o.” value came out at 8.

In the case of `CC1CC(C)CN(CCCc2ccc(-c3nc4c(N)nc(N)nc4nc3N)cc2)C1` (stereo not drawn) [compound IM, 2,4,7-Triamino-6-[4-(3-(3,5-dimethylpiperidino)propyl)phenyl]pteridine], the log partition coefficient (logP) in series [1] was found to be 1.18. The logD in series [1] (pH = 7.4) came to 1.18. Also, the solubility in series [2] (setting [19]) was determined as 135 µg/mL (≈ 332 µM). Besides, the Fa in series [3] amounted to 7%. Moreover, in series [4], the “Na^+/K^+ quotient i.v.” value amounted to 128 and the “Na^+/K^+ quotient p.o.” value worked out at 27.
